Experimental data as given in the NIST ThermoML archive (doi:10.1016/j.jct.2012.02.036).
Several values for one entry are separate records, joined by “and”; a condition that tells them apart may be missing. Equal values may be shown once. Numbers after ± are expanded uncertainties.

What was measured:
[1] = Liquid; for mass density: Vibrating tube method
[2] = xn = mol fraction of the nth substance listed; conditions: 101 kPa, Liquid, x2 = 0; for mass density: Vibrating tube method
[3] = 293.15 K, 101.33 kPa, Capillary tube (Ostwald / Ubbelohde) method
[4] = 303.15 K, 101.33 kPa, Capillary tube (Ostwald / Ubbelohde) method
[5] = 313.15 K, 101.33 kPa, Capillary tube (Ostwald / Ubbelohde) method
[6] = 323.15 K, 101.33 kPa, Capillary tube (Ostwald / Ubbelohde) method
[7] = 333.15 K, 101.33 kPa, Capillary tube (Ostwald / Ubbelohde) method

Compound: CC(C)CO [2-methyl-1-propanol]
- viscosity ([1]; 293.15 K, 101 kPa): 4.197 ± 0.23 mPa·s
- mass density ([1]; 293.15 K, 101 kPa): 801.8 ± 0.2 kg/m3
- viscosity [1, 3]: 4.085 ± 0.025 mPa·s
- mass density ([1]; 293.15 K, 101.33 kPa): 801.75 ± 0.24 kg/m3
- viscosity ([1]; 303.15 K, 101 kPa): 2.873 ± 0.16 mPa·s
- viscosity [1, 4]: 2.877 ± 0.018 mPa·s
- mass density ([1]; 303.15 K, 101.33 kPa): 793.99 ± 0.24 kg/m3
- viscosity ([1]; 313.15 K, 101 kPa): 1.926 ± 0.11 mPa·s
- viscosity [1, 5]: 2.091 ± 0.013 mPa·s
- mass density ([1]; 313.15 K, 101.33 kPa): 786.04 ± 0.24 kg/m3
- viscosity ([1]; 323.15 K, 101 kPa): 1.232 ± 0.074 mPa·s
- viscosity [1, 6]: 1.576 ± 0.01 mPa·s
- mass density ([1]; 323.15 K, 101.33 kPa): 777.85 ± 0.24 kg/m3
- viscosity ([1]; 333.15 K, 101 kPa): 0.665 ± 0.044 mPa·s
- viscosity [1, 7]: 1.124 ± 0.007 mPa·s
- mass density ([1]; 333.15 K, 101.33 kPa): 769.36 ± 0.24 kg/m3

Compound: CC(C)CO [2-methyl-1-propanol] + NCCCO
- mass density ([2]; 293.15 K): 801.8 ± 0.2 kg/m3
- viscosity ([2]; 293.15 K): 4.197 ± 0.23 mPa·s
- mass density ([2]; 303.15 K): 793.99 ± 0.24 kg/m3
- viscosity ([2]; 303.15 K): 2.873 ± 0.16 mPa·s
- mass density ([2]; 313.15 K): 786.04 ± 0.24 kg/m3
- viscosity ([2]; 313.15 K): 1.926 ± 0.11 mPa·s
- mass density ([2]; 323.15 K): 777.85 ± 0.24 kg/m3
- viscosity ([2]; 323.15 K): 1.232 ± 0.074 mPa·s
- mass density ([2]; 333.15 K): 769.36 ± 0.24 kg/m3

Compound: NCCCO [3-amino-1-propanol]
- viscosity ([1]; 293.15 K, 101 kPa): 40.45 ± 1.7 mPa·s and 40.46 ± 1.7 mPa·s
- mass density ([1]; 293.15 K, 101 kPa): 987.65 ± 0.29 kg/m3
- viscosity [1, 3]: 40.42 ± 0.2 mPa·s
- mass density ([1]; 293.15 K, 101.33 kPa): 987.55 ± 0.21 kg/m3
- viscosity ([1]; 303.15 K, 101 kPa): 23.98 ± 1 mPa·s
- mass density ([1]; 303.15 K, 101 kPa): 979.65 ± 0.29 kg/m3
- viscosity [1, 4]: 23.87 ± 0.12 mPa·s
- mass density ([1]; 303.15 K, 101.33 kPa): 979.53 ± 0.22 kg/m3
- viscosity ([1]; 313.15 K, 101 kPa): 15.31 ± 0.68 mPa·s
- mass density ([1]; 313.15 K, 101 kPa): 971.61 ± 0.29 kg/m3
- viscosity [1, 5]: 15.27 ± 0.078 mPa·s
- mass density ([1]; 313.15 K, 101.33 kPa): 971.47 ± 0.22 kg/m3
- viscosity ([1]; 323.15 K, 101 kPa): 10.22 ± 0.48 mPa·s
- mass density ([1]; 323.15 K, 101 kPa): 963.52 ± 0.29 kg/m3
- viscosity [1, 6]: 10.22 ± 0.054 mPa·s
- mass density ([1]; 323.15 K, 101.33 kPa): 963.37 ± 0.22 kg/m3
- viscosity ([1]; 333.15 K, 101 kPa): 6.961 ± 0.35 mPa·s and 6.962 ± 0.35 mPa·s
- mass density ([1]; 333.15 K, 101 kPa): 955.38 ± 0.29 kg/m3
- viscosity [1, 7]: 7.123 ± 0.04 mPa·s
- mass density ([1]; 333.15 K, 101.33 kPa): 955.22 ± 0.22 kg/m3

Compound: CC(C)O [propan-2-ol]
- viscosity ([1]; 293.15 K, 101 kPa): 2.318 ± 0.13 mPa·s
- mass density ([1]; 293.15 K, 101 kPa): 785.36 ± 0.24 kg/m3
- viscosity [1, 3]: 2.362 ± 0.015 mPa·s
- mass density ([1]; 293.15 K, 101.33 kPa): 785.25 ± 0.24 kg/m3
- viscosity ([1]; 303.15 K, 101 kPa): 1.596 ± 0.094 mPa·s
- mass density ([1]; 303.15 K, 101 kPa): 776.87 ± 0.24 kg/m3
- viscosity [1, 4]: 1.769 ± 0.011 mPa·s
- mass density ([1]; 303.15 K, 101.33 kPa): 776.78 ± 0.24 kg/m3
- viscosity ([1]; 313.15 K, 101 kPa): 0.996 ± 0.062 mPa·s
- mass density ([1]; 313.15 K, 101 kPa): 768.07 ± 0.24 kg/m3
- viscosity [1, 5]: 1.33 ± 0.0086 mPa·s
- mass density ([1]; 313.15 K, 101.33 kPa): 767.98 ± 0.24 kg/m3
- mass density ([1]; 323.15 K, 101 kPa): 758.89 ± 0.24 kg/m3
- viscosity [1, 6]: 1.014 ± 0.0068 mPa·s
- mass density ([1]; 323.15 K, 101.33 kPa): 758.82 ± 0.25 kg/m3
- mass density ([1]; 333.15 K, 101 kPa): 749.25 ± 0.25 kg/m3
- mass density ([1]; 333.15 K, 101.33 kPa): 749.2 ± 0.25 kg/m3

Compound: CC(C)O [propan-2-ol] + NCCCO
- mass density ([2]; 293.15 K): 785.36 ± 0.24 kg/m3
- viscosity ([2]; 293.15 K): 2.318 ± 0.13 mPa·s
- mass density ([2]; 303.15 K): 776.87 ± 0.24 kg/m3
- viscosity ([2]; 303.15 K): 1.596 ± 0.094 mPa·s
- mass density ([2]; 313.15 K): 768.07 ± 0.24 kg/m3
- viscosity ([2]; 313.15 K): 0.996 ± 0.062 mPa·s
- mass density ([2]; 323.15 K): 758.89 ± 0.24 kg/m3
- mass density ([2]; 333.15 K): 749.25 ± 0.25 kg/m3
